For one test, the system named is C2C12 cells. The experiment in a line: Differentiation and muscle protein expression of C2C12 myoblasts exposed to deacetylase inhibitors (MHC immunofluorescence, Western blot, RT-PCR, FACS). It is filed as cell-based, mouse. The procedure:
Mouse muscle myoblast C2C12 cells (obtained from the American Type Culture Collection, ATCC CRL-1772) and CC42 cells (from Dr. Kenneth Walsh, Tufts University School of Medicine) were cultured in DMEM supplemented with 20% fetal bovine serum, 2 mM glutamine and 1× kanamycin (growth medium, GM). Cellular differentiation was induced with DMEM supplemented with 2% horse serum and 1× insulin, transferring, selenium (Life Technologies). Human skeletal myocytes (CC-2561) were purchased from Clonetics. Stable C2C12 cell lines with integrated reporters are described in Wu, Z., et al., Mol Cell Biol 20:3951-64 (2000). The MCK-luc, 4RE-luc, MEF2 reporter constructs have been described in Puri, P. L., et al., EMBO Journal 16:369-83 (1997a) and Sartorelli, V., et al., Molecular & Cellular Biology 17:1010-26 (1997). The E2F-luc plasmid is described in Helin, K., et al., Genes Dev 7:1850-61 (1993). The MLC-lacZ-nls plasmid is described in Wu, et al. (2000). Dr. Stuart Schreiber (Harvard University) provided the vector expressing Flag-HDAC1, which is described in Taunton, J., et al., Science 272: 408-11 (1996). Transient transfections were performed using FuGENE 6 transfection reagent (Roche Molecular Biochemicals). Following transfections, luciferase activity was determined using the Dual-Luciferase reporter assay system (Promega) on a microtiter luminescence detection system (MLX, Dynex).
For immunoblotting, cell extracts were obtained after incubating the cells in standard lysis buffer. Western blots were probed with the following antibodies: anti-MHC (MF-20), anti-myogenin (FD5), and anti-tubulin (E7), obtained from the Developmental Studies Hybridoma Bank, University of Iowa. Primary antibodies were visualized with the ECL cheminoluminescent kit (Amersham). Cells were fixed and stained with anti-MHC MF-20 antibodies. Nuclei were visualized by 4′,6′-[…]-2-phenylindole (DAPI). FITC-conjugated or Texas red-conjugated secondary antibodies were employed to reveal the primary antibodies.
C2C12 and CC42 cells were exposed to sodium butyrate 5 mM (Sigma), trichostatin A 50 nM (Upstate Biotechnologies), or valproic acid 10 mM (Sigma) for 24 hours in GM (GM regimen). TSA was removed and the cells cultured in DM for 48 hrs before being analyzed. When indicated (DM regimen), the cells were exposed to deacetylase inhibitors when switched from GM to DM and cultured in their presence for 48 hrs.
Another striking effect induced by DI is their ability to increase the number of nuclei present in MHC positive cells. While approximately 15% of the total nuclei are present in elongated, MHC-positive myotubes not exposed to DI, approximately 75-80% of the total nuclei are detected in hypernucleated MHC-positive myotubes when these have been previously exposed to DI (see FIG. 1D and Table 1). In Table 1, C2C12 cells were either exposed to sodium butyrate, TSA, VPA or left untreated for 24 hours in GM. The medium was replaced with DM without DI, and MHC expression was detected by immunofluorescent staining. Nuclei were visualized with DAPI. The values in parenthesis indicate the percentage of nuclei detected in MHC-positive cells. The values are derived from two independent trials.
(A western blot detects proteins with antibodies after separation by electrophoresis.)

A further test has as its system cyclinA-luc. In words: Integrated cyclinA-luc reporter in stable C2C12 clone. The class given is cell-based, mouse. As to conditions: TSA treatment in GM. The procedure: FIGS. 2A-D are graphs showing DI activation muscle-specific transcription in skeletal muscle cells. […] Luciferase activity was measured in non-treated cells cultured in either GM (GM) or DM (DM). Alternatively, C2C12 were exposed to sodium butyrate for 24 hours in GM and then switched to DM without sodium butyrate (Butyr/GM>DM) or treated with sodium butyrate when cultured in DM (Butyr/DM) before being analyzed for luciferase activity. […] Luciferase assays were performed after culturing the cells for 48 hours in DM without sodium butyrate. […] The reporter activity was also analyzed in cells differentiated in the absence of TSA (DM)
Mouse muscle myoblast C2C12 cells (obtained from the American Type Culture Collection, ATCC CRL-1772) and CC42 cells (from Dr. Kenneth Walsh, Tufts University School of Medicine) were cultured in DMEM supplemented with 20% fetal bovine serum, 2 mM glutamine and 1× kanamycin (growth medium, GM). Cellular differentiation was induced with DMEM supplemented with 2% horse serum and 1× insulin, transferring, selenium (Life Technologies). Human skeletal myocytes (CC-2561) were purchased from Clonetics. […] Following transfections, luciferase activity was determined using the Dual-Luciferase reporter assay system (Promega) on a microtiter luminescence detection system (MLX, Dynex). […]

Where [1] appears, read: C2C12, DI 24 hours in GM, then DM without DI, Tr. 1 and Tr. 2.

Structures are written as SMILES. “And” between values parts separate entries of the source, which are not always exact repeats. Equal entries are not always repeated.

`CC(/C=C/C(=O)NO)=C\[C@@H](C)C(=O)c1ccc(N(C)C)cc1` [TSA, trichostatin A]: in the test on C2C12 cells (setting [1]), the “Nuclei/MHC-Positive Cells (number of nuclei)” value was 200 and 210; the “percentage of nuclei detected in MHC-positive cells” value was 75% and 65%. Besides, the “endogenous MCK transcripts (RT-PCR)” value in the test on C2C12 cells (undifferentiated myoblasts exposed in GM) is “induction of endogenous MCK transcripts”. Also, the “MHC expression and frequency of MHC-positive multinucleated cells” value in the test on C2C12 cells (undifferentiated myoblasts exposed in GM, differentiated in the absence of DI, vs untreated cells) was “effects undistinguishable from those exerted by sodium butyrate”. For the same compound, the “serum-dependent transcription of integrated cyclinA-luc” value with cyclinA-luc is recorded as “not stimulated”.

(Values after patent publication US7795208B2, “Methods of using deacetylase inhibitors to promote cell differentiation and regeneration” (The Salk Institute for Biological Study, priority 2001, dated 2010).)
